Experimental data published in patent publication US10800816B2 (Baxalta GmbH, priority 2012, dated 2020).
Where a SMILES comes first, the peptide text is derived from it. [ ]: non-standard residue; d: D form. The star is where a group is joined. Succinimide(1-Et,3-yl) = CCN1C(=O)CC(*)C1=O; Tle = CC(C)(C)[C@H](N)C(=O)O; Hexanoyl = CCCCCC(=O)*; Aib = CC(C)(N)C(=O)O; Acm = CC(=O)NC*

Experiments:
[1] = tested on: FVIII-inhibited whole blood; assay: Rotation thromboelastography (ROTEM) in whole blood; parameters: species or system human; conditions: for EC50: FVIII-inhibited, read-out: EC50, global hemostatic parameters; for coagulation parameters: Hem A / FVIII-inhibited human whole blood
Protocol: Continuous visco-elastic assessment of human whole blood clot formation and firmness was performed by rotation thromboelastography with whole blood preparations in the presence or absence of peptides. […] Test samples were prepared by dissolving quantities of peptides in either DMSO or HEPES buffered saline (with or without 0.1% Tween 80).
Recordings were made using a ROTEM thromboelastography coagulation analyzer (Pentapharm, Munich, Germany) at 37° C. Briefly, blood is added into a disposable cuvette in a heated cuvette holder. A disposable pin (sensor) is fixed on the tip of a rotating axis. The axis is guided by a high precision ball bearing system and rotates back and forth. The axis is connected with a spring for the measurement of elasticity. The exact position of the axis is detected by the reflection of light on a small mirror on the axis. The loss of elasticity when the sample clots leads to a change in the rotation of the axis. The data obtained are computer analyzed and visualized in a thromboelastogram. […] An elasticity of approximately zero is observed before clot formation begins. Mirror image traces above and below the zero line indicate the effect of clot formation on the rotation of the axis.
The analytical set-up was as follows: to 20 μL of test sample or control, 300 μL of pre-warmed (37° C.) CTI treated citrated whole blood was added, followed by 20 μL of a 1:15 dilution of TF PRP reagent containing recombinant human tissue factor (rTF, 3 pM) (TS40, Thrombinoscope BV, Maastricht, The Netherlands). Coagulation was initiated by the addition of 20 μ200 mM CaCl2 (star-TEM®, Pentapharm, Munich, Germany) and recordings were allowed to proceed for at least 120 min. The final concentration of rTF in the assay was 11 or 44 fM.
The thromboelastographic parameters of clotting time (CT), clot formation time (CFT) and maximum clot firmness (MCF) were recorded in accordance with the manufacturer's instructions. CT is defined as the time from the start of measurement to the start of clot formation. CFT is defined as the time from the start of clot formation until an amplitude of 20 mm is reached. MCF is the maximum difference in amplitude between the two traces during the assay. The first derivative of the data of the thromboelastogram are plotted to obtain a graph of velocity (mm/s) against time (s). From this graph, the maximum velocity (maxV) is determined. The time at which the maximum velocity is obtained (maxV-t) is also determined.
This example describes a method for assessing clot formation in whole blood using rotation thromboelastography (ROTEM). The assay was performed as described in Example 8. The analytical set-up was as follows: 300 μL of pre-warmed (37° C.) CTI treated citrated whole blood was added to a peptide sample (10, 100, 1000 nM final assay concentration) or a control, followed by addition of a 1:15 dilution of TF PRP reagent containing recombinant human tissue factor (rTF, 3 pM) (TS40, Thrombinoscope BV, Maastricht, The Netherlands). In certain experiments, exogenous full length TFPI (flTFPI) at final concentrations of 2 or 10 nM was added to simulate flTFPI plasma levels of up to 50-fold over normal. Coagulation was initiated by the addition of 20 μL 200 mM CaCl2 (star-TEM®, Pentapharm, Munich, Germany) and recordings were allowed to proceed for at least 120 min. The final concentration of rTF in the assay was 44 fM. The thromboelastographic parameters of clotting time (CT), clot formation time (CFT) and maximum clot firmness (MCF) were recorded in accordance with the manufacturer's instructions. CT is defined as the time from the start of measurement to the start of clot formation. CFT is defined as the time from the start of clot formation until an amplitude of 20 mm is reached. MCF is the maximum difference in amplitude between the two traces during the assay.

FIGURE 78J = assay: FIGURE 78J
Text: Table printed on a drawing sheet, FIGURE 78J
First reader's note: Part of a table series (FIGS. 78A-78AA); single-measurement columns hold several replicate values per cell, joined by blanks, next to the mean column (the first INHIBITION [%] column holds the mean).

TFPI [2] = assay: IC50 ELISA | Mean IC50 [nM]
Text: Table printed on a drawing sheet, FIGURE 78Z
Head of the field: IC50 ELISA | Mean IC50 [nM]
First copying reader's note: Continued table: the first body row (45.67) belongs to a compound on the preceding sheet, the last row probably continues on the next sheet, and cells with several values list single replicates.

FIGURE 78AA = assay: FIGURE 78AA
Text: Table printed on a drawing sheet, FIGURE 78AA
First reader's note: Continued from the previous sheet: the first body row (73.35) belongs to a compound listed there; cells with several numbers hold the single replicate values behind the mean.

FIGURE 78K = assay: FIGURE 78K
Text: Table printed on a drawing sheet, FIGURE 78K

TFPI [3] = assay: Progress Curves of Inhibition of FXa | % Inhibit (2.5μM)
Protocol: Head of the field: Progress Curves of Inhibition of FXa | % Inhibit (2.5μM)

Compound: CSCC[C@@H]1NC(=O)[C@H](C)NC(=O)[C@@H](NC(=O)[C@H](Cc2c[nH]cn2)NC(=O)[C@H](Cc2c[nH]c3ccccc23)NC(=O)[C@H](CCCCN)NC(=O)[C@H](Cc2ccc(O)cc2)NC(=O)[C@H](Cc2ccc(O)cc2)NC(=O)[C@H](CO)NC(C)=O)CSSC[C@@H](C(=O)N[C@H](C(=O)N[C@@H](Cc2c[nH]c3ccccc23)C(=O)N[C@H](C(=O)N[C@@H](CCCCN)C(=O)N[C@@H](Cc2ccccc2)C(N)=O)C(C)C)C(C)C)NC(=O)[C@H]([C@@H](C)O)NC(=O)[C@H](CCSC)NC(=O)[C@H]([C@@H](C)O)NC(=O)CNC(=O)[C@H](CCCCN)NC(=O)[C@H](CCSC)NC(=O)[C@H](CC(=O)O)NC(=O)[C@H](CCCNC(=N)N)NC1=O [JBT1837]
- EC50 [1]: 4 nM
- coagulation parameters [1]: corrected blood coagulation parameters in FVIII-inhibited blood

Compound: CCN1C(=O)CC(SC[C@H](NC(=O)[C@H](CC(C)C)NC(=O)[C@H](CCCCN)NC(=O)[C@H](C)NC(=O)C(C)(C)NC(=O)[C@H](CC(C)C)NC(=O)[C@H](CCCNC(=N)N)NC(=O)[C@H](CCC(=O)O)NC(=O)[C@H](Cc2ccccc2)NC(=O)[C@H](Cc2ccc(O)cc2)NC(=O)CNC(=O)[C@H](CC(=O)O)NC(=O)[C@@H](NC(=O)[C@H](Cc2c[nH]cn2)NC(=O)[C@@H](NC(=O)[C@H](CC(N)=O)NC(=O)[C@H]2CCCN2C(=O)[C@H](CCCCN)NC(=O)[C@H](CO)NC(=O)[C@H](CCC(N)=O)NC(=O)[C@H](Cc2ccccc2)NC(C)=O)C(C)C)C(C)C)C(N)=O)C1=O (stereo partly drawn) [JBT2317]
- coagulation parameters [1]: restored coagulation parameters in Hem A blood
- 24 h Human Plasma Stability | Mean Remaining [%] (FIGURE 78J): 23.77%
- 24 h Mouse Plasma Stability | Mean Remaining [%] (FIGURE 78J): 15.95%

Compound: CCCCCC(=O)N[C@@H](Cc1ccccc1)C(=O)N[C@@H](CCC(N)=O)C(=O)N[C@@H](CO)C(=O)N[C@@H](CCCCN)C(=O)N1CCC[C@@H]1C(=O)N[C@@H](CSCNC(C)=O)C(=O)N[C@H](C(=O)N[C@@H](Cc1c[nH]cn1)C(=O)N[C@H](C(=O)N[C@@H](CC(=O)O)C(=O)N[C@H](C)C(=O)N[C@@H](Cc1ccc(O)cc1)C(=O)N[C@@H](Cc1ccccc1)C(=O)N[C@@H](CCC(=O)O)C(=O)N[C@@H](CCCNC(=N)N)C(=O)N[C@@H](CC(C)C)C(=O)NC(C)(C)C(=O)N[C@@H](C)C(=O)N[C@@H](CCCCN)C(=O)N[C@@H](CC(C)C)C(N)=O)C(C)(C)C)C(C)C [JBT2528, Hex-FQSKp-C(Acm)-VH-Tle-DaYFERL-Aib-AKL-NH2] (Hexanoyl-FQSK[dP]C(Acm)VH[Tle]D[dA]YFERL[Aib]AKL-NH2)
- EC50 [1]: 11 nM

Compound: CCCCCC(=O)N[C@@H](Cc1ccccc1)C(=O)N[C@@H](CCC(N)=O)C(=O)N[C@@H](CO)C(=O)N[C@@H](CCCCN)C(=O)N1CCC[C@@H]1C(=O)N[C@@H](CSCNC(C)=O)C(=O)N[C@H](C(=O)N[C@@H](Cc1c[nH]cn1)C(=O)N[C@H](C(=O)N[C@@H](CC(=O)O)C(=O)N[C@H](C)C(=O)N[C@@H](Cc1ccc(O)cc1)C(=O)N[C@@H](Cc1ccccc1)C(=O)N[C@@H](CCC(=O)O)C(=O)N[C@@H](CCCNC(=N)N)C(=O)N[C@@H](CC(C)C)C(=O)NC(C)(C)C(=O)N[C@@H](C)C(=O)N[C@@H](CCCCN)C(=O)N[C@@H](CC(C)C)C(=O)N[C@@H](CSC1CC(=O)N(CC)C1=O)C(N)=O)C(C)(C)C)C(C)C (stereo partly drawn) [JBT00002537, Hex-FQSKp-Cys(Acm)-VH-Tle-DaYFERL-Aib-AKLC(NEM)- NH2] (Hexanoyl-FQSK[dP]C(Acm)VH[Tle]D[dA]YFERL[Aib]AKLC(Succinimide(1-Et,3-yl))-NH2)
- IC50 (TFPI [2]): 7.13 nM
- 24 h Human Plasma Stability | Mean Remaining [%] (FIGURE 78Z): 106.65%

Compound: CCCCCC(=O)N[C@@H](Cc1ccccc1)C(=O)N[C@@H](CCC(N)=O)C(=O)N[C@@H](CO)C(=O)N[C@@H](CCCCN)C(=O)N1CCC[C@@H]1C(=O)N[C@@H](CO)C(=O)N[C@H](C(=O)N[C@@H](Cc1c[nH]cn1)C(=O)N[C@H](C(=O)N[C@@H](CC(=O)O)C(=O)N[C@H](C)C(=O)N[C@@H](Cc1ccc(O)cc1)C(=O)N[C@@H](Cc1ccccc1)C(=O)N[C@@H](CCC(=O)O)C(=O)N[C@@H](CCCNC(=N)N)C(=O)N[C@@H](CC(C)C)C(=O)NC(C)(C)C(=O)N[C@@H](C)C(=O)N[C@@H](CCCCN)C(=O)N[C@@H](CC(C)C)C(=O)N[C@@H](CSC1CC(=O)N(CC)C1=O)C(N)=O)C(C)(C)C)C(C)C (stereo partly drawn) [JBT00002546, Hex-FQSKpSVH-Tle-DaYFERL-Aib-AKLC(NEM)-NH2] (Hexanoyl-FQSK[dP]SVH[Tle]D[dA]YFERL[Aib]AKLC(Succinimide(1-Et,3-yl))-NH2)
- 24 h Human Plasma Stability | Mean Remaining [%] (FIGURE 78AA): 87.66%
- 24 h Mouse Plasma Stability | Mean Remaining [%] (FIGURE 78AA): 72.98%

Compound: CCCCCC(=O)N[C@@H](Cc1ccccc1)C(=O)N[C@@H](CCC(N)=O)C(=O)N[C@@H](CO)C(=O)N[C@@H](CCCCN)C(=O)N1CCC[C@@H]1C(=O)N[C@@H](CO)C(=O)N[C@H](C(=O)N[C@@H](Cc1c[nH]cn1)C(=O)N[C@H](C(=O)N[C@@H](CC(=O)O)C(=O)N[C@H](C)C(=O)N[C@@H](Cc1ccc(O)cc1)C(=O)N[C@@H](Cc1ccccc1)C(=O)N[C@@H](CCC(=O)O)C(=O)N[C@@H](CCCNC(=N)N)C(=O)N[C@@H](CC(C)C)C(=O)NC(C)(C)C(=O)N[C@@H](C)C(=O)N[C@@H](CCCCN)C(=O)N[C@@H](CC(C)C)C(N)=O)C(C)(C)C)C(C)C [JBT00002548, Hex-FQSKpSVH-Tle-DaYFERL-Aib-AKL-NH2]
- 24 h Human Plasma Stability | Mean Remaining [%] (FIGURE 78AA): 98.85%
- 24 h Mouse Plasma Stability | Mean Remaining [%] (FIGURE 78AA): 50.25%

Compound: (Hex-FQSKp-Cys(Acm)-VH-Tle-DaYFERL-Aib-AKLC-NH2)- Mal-mPEG23 [JBT00002544]
- 24 h Human Plasma Stability | Mean Remaining [%] (FIGURE 78AA): 54.00%
- 24 h Mouse Plasma Stability | Mean Remaining [%] (FIGURE 78AA): 46.20%

Compound: Ac-FQSKpNVHVDGYFERL-Aib-AKLC(ME-50MA)-NH2 [JBT00002325]
- 24 h Human Plasma Stability | Mean Remaining [%] (FIGURE 78J): 67.60%
- 24 h Mouse Plasma Stability | Mean Remaining [%] (FIGURE 78J): 44.70%

Compound: Ac-FQSKpNVHVDGYFERL-Aib-AKLC(ME-120MA)-NH2 [JBT00002326]
- 24 h Human Plasma Stability | Mean Remaining [%] (FIGURE 78J): 58.70%
- 24 h Mouse Plasma Stability | Mean Remaining [%] (FIGURE 78J): 57.20%

Compound: Ac-FQSKpNVHVDGYFERL-Aib-AKLC(ME-200MA0B)-NH2 [JBT00002327]
- 24 h Human Plasma Stability | Mean Remaining [%] (FIGURE 78K): 76.50%
- 24 h Mouse Plasma Stability | Mean Remaining [%] (FIGURE 78K): 65.50%

Compound: Ac-FQSKpNVHVDGYFERL-Aib-AKLC(ME-300MA)-NH2 [JBT00002328]
- 24 h Human Plasma Stability | Mean Remaining [%] (FIGURE 78K): 68.40%
- 24 h Mouse Plasma Stability | Mean Remaining [%] (FIGURE 78K): 51.00%

Compound: Ac-KKHVSKRSKEMALARLYYKTSKK-NH2 (SEQ ID NO: 2302) [JBT0231]
- Progress Curves of Inhibition of FXa | % Inhibit ([…]) (TFPI [3]): 0%

Compound: Ac-KKLHVSKRSKEMALARLYYKTSKK-NH2 (SEQ ID NO: 2307) [JBT0236]
- Progress Curves of Inhibition of FXa | % Inhibit ([…]) (TFPI [3]): 0%
